Reference: US20220143041A1, “COMBINED THERAPY FOR NMDAR ANTAGONIST-RESPONSIVE NEUROPSYCHIATRIC DISORDERS” (Glytech LLC, priority 2017, published 2022)
Entries after “also recorded” stand apart in the source; their conditions may differ.

Assays:
[1] = tested on: rodent; settings: Freynhagen et al.; cited from earlier work
[2] = tested on: Male BalbC/J mice; assay: Forced swim test (FST), immobility time; assay type: in vivo; settings: for Immobility time in the rodent forced swim test, Mean: 6-min test, IP 30 min prior, DCS 300 mg/kg, mirtazapine or isomer 5 mg/kg, alone or combined; for FST additional beneficial effects in combination with DCS / FST effect of combined antidepressant and DCS vs either agent alone / DCS alone: agent (dose) + DCS 300 mg/kg IP, FIG. 2; for Effect on immobility in the forced swim test vs control: DCS alone
[3] = tested on: mice; assay: Marble burying test; assay type: in vivo; settings: for Marble burying effect relative to racemic mirtazapine: 1-10 mg/kg IP
Excerpt: Distance traveled during the test was captured by cameras and quantified using Video Tracker Software (ViewPoint Life Sciences Software, France). At the end of the test mice were removed from the cages and the number of unburied marbles was counted. A marble was considered buried if it was covered at least two thirds with bedding. An effect was considered significant if p<0.05.
from the cages and the number of unburied marbles was counted. A marble was considered buried if it was covered at least two thirds with bedding.
The following compounds were used. […] This compound was dissolved in 20% cyclodextrin and administered IP 30 min prior to test at a dose volume of 10 ml/kg. • Combination DSC (300 mg/kg)+Mirtazapine ([…]) was administered IP as a cocktail in a single injection 30 minutes prior to test at a dose volume of 10 ml/kg.
Mirtazapine is a racemic mix of separate R(−) and S(+) isomers. A follow-up study evaluated the relative effects of the two isomers independently. Methods are the same as for Example 3.

[4] = tested on: symptoms of major depression; settings: 250 mg/day; cited from earlier work
[5] = molecular target: T1, NMDAR (Homo sapiens, UniProt Q05586); settings: in vivo; cited from earlier work
T1 construct: from tissue; host or cells: endogenous receptors of the treated subject (brain), in vivo

[6] = cited from earlier work
[7] = Pharmacokinetics of D-cycloserine in rodents (plasma level, UPLC/MS/MS); assay type: in vivo; settings: mice
Method: For this study, male C57BL/6J mice (8 weeks old) from Jackson Laboratories (Bar Harbor, Me.) were used.
For each treatment group a total of 12 mice were dosed: 4 mice were collected at 30, 60 and 120 min. Mean plasma level was computed over the 30-60 min time period.

[8] = tested on: Male C57BL/6J mice; assay: Open field test, locomotor activity; settings: vs vehicle
[9] = Pharmacokinetics of D-cycloserine in humans (literature)
[10] = tested on: mice; settings: mice (Carlsson et al.); cited from earlier work
[11] = FIG. 3, IP 30 min prior, paroxetine 5, mirtazapine 5.5, D-cycloserine 30 and 300 mg/kg, combination 300 + 5.5 mg/kg
[12] = FIG. 4, IP, paroxetine 5, mirtazapine and S-mirtazapine 1, 2.5, 5, 10, R-mirtazapine 10 mg/kg
[13] = humans, 250 mg PO every 12 hrs (Park et al.)
[14] = humans, 500 mg, fasting (Zhu et al.)
[15] = patients, mean dose 8.8 mg/kg, mostly 500 mg/day (Hung et al.)
[16] = 500 mg, corresponding to AUC over 24 hr (Zhu et al.)

CN1CCN2c3ncccc3Cc3ccccc3C2C1 (racemic) [mirtazapine]
Effect in a rodent nociception assay [1]: biphasic effects | Immobility time in the rodent forced swim test, Mean [2]: 92.30 s | FST additional beneficial effects in combination with DCS [2]: addition beneficial effects | Number of marbles buried compared to vehicle [3, 11]: significantly reduced | Number of marbles buried compared to vehicle [3, 12]: significantly reduced

N[C@@H]1CON=C1O [DCS, 3-Isoxazolidinone, 4-amino-, (4R)-(9CI)]
Immobility time in the rodent forced swim test, Mean [2]: 42.08 s | Effect on immobility in the forced swim test vs control ([2]; 30 mg/kg (FIG. 1, PO)): no significant effect | Effect on immobility in the forced swim test vs control ([2]; doses of 100 mg/kg or above (FIG. 1, PO)): statistically significant (p<0.001) reduction | Effect on symptoms of major depression [4]: without significant effect | Number of marbles buried compared to vehicle [3, 11]: did not affect | Plasma concentrations associated with antagonist effects [5]: > 25 µg/mL | Plasma concentrations associated with primarily agonist effects [5]: < 10 µg/mL | Plasma levels with increased liability for toxicity [5]: > 35000 ng/mL | Mean AUC over 12 hrs [6, 13]: 242.3 µg·h/mL | Mean Cmax [6, 13]: 24.9 microgram/mL | AUC over 24 hr, range [6, 14]: 163-352 microgram-hr/mL | Cmax, range [6, 14]: 12.1-30.6 microgram/mL | Median AUC over 24 hr [6, 14]: 214 microgram-hr/mL | Median Cmax [6, 14]: 14.8 microgram/mL | Sustained plasma level following 500 mg administration ([6]; humans, summary of PK studies): below 25 microgram/mL | DCS concentration at 2 hr after dosing [6, 15]: 19.7 microgram/mL | DCS concentration at 6 hr after dosing [6, 15]: 18.1 microgram/mL | Mean plasma levels over 30-60 min ([7]; D-cycloserine 30 mg/kg IP): below 25 microgram/mL | Mean plasma levels over 30-60 min ([7]; D-cycloserine 30 mg/kg IP, listed as D-cycloserine): 24.89 microgram/mL | Mean plasma levels over 30-60 min ([7]; D-cycloserine 100 mg/kg IP): 74.92 microgram/mL | Mean plasma levels over 30-60 min ([7]; D-cycloserine 500 mg/kg IP): 375.44 microgram/mL | Mean plasma levels over 30-60 min ([7]; D-cycloserine 1000 mg/kg IP): 510.73 microgram/mL | MTD ([7]; male, C57BL/6J, mouse, in vivo, IP, read-out: Maximum tolerated dose): 500 to 1000 mg/kg | Maximum tolerated blood level ([7]; suggested from maximum tolerated dose): approximately 500 ug/mL | Mean distance travelled over 30 min (locomotor activity) ([8]; DCS 30 mg/kg IP): 4432.1 | Mean distance travelled over 30 min (locomotor activity) ([8]; DCS 30 mg/kg IP, listed as D-cycloserine): not significantly affected | Mean distance travelled over 30 min (locomotor activity) ([8]; DCS 300 mg/kg IP): 7588.5 | Mean distance travelled over 30 min (locomotor activity) ([8]; DCS 300 mg/kg IP, listed as D-cycloserine): significantly increased | Mean distance travelled over 30 min (locomotor activity) ([8]; DCS 1000 mg/kg IP): 9049.8 | Mean distance travelled over 30 min (locomotor activity) ([8]; DCS 1000 mg/kg IP, listed as D-cycloserine): significantly increased | Mean plasma level ([9]; 250 mg PO every 12 hrs, corresponding to AUC over 12 hrs (Park et al.)): 20.2 microgram/mL | Median sustained plasma level [9, 16]: 8.9 microgram/mL | Sustained plasma level, range [9, 16]: 6.8-14.7 microgram/mL | Effect on locomotor stimulation by a low dose of MK-801 [10]: potentiated

Fc1ccc([C@@H]2CCNC[C@H]2COc2ccc3c(c2)OCO3)cc1 [Paroxetine]
Number of marbles buried compared to vehicle [3, 11]: significantly reduced | Number of marbles buried compared to vehicle [3, 12]: significantly reduced

CN1CCN2c3ncccc3Cc3ccccc3[C@@H]2C1 [R-mirtazapine, R(−)mirtazapine]
Effect in a rodent nociception assay [1]: only anti-nociceptive effects | FST reduction in immobility, R- vs racemic mirtazapine ([2]; 5 mg/kg, in absence and presence of DCS, not statistically different): numerically greater | Immobility time in the rodent forced swim test, Mean [2]: 68.40 s | Marble burying effect relative to racemic mirtazapine ([3]; FIG. 4): less robust | Number of marbles buried compared to vehicle [3, 12]: significantly reduced | Number of marbles buried compared to vehicle ([3]; FIG. 4, R-mirtazapine 1, 2.5 and 5 mg/kg IP): did not affect | Relative effects of R- and S-isomers of mirtazapine on marble burying (FIG. 4 legend) ([3]; FIG. 4 legend): greater effects of R- vs S-isomer

CN1CCN2c3ncccc3Cc3ccccc3[C@H]2C1 [S-mirtazapine, S(+)mirtazapine]
Effect in a rodent nociception assay [1]: pro-nociceptive effects | Immobility time in the rodent forced swim test, Mean [2]: 117.60 s | Marble burying effect relative to racemic mirtazapine ([3]; FIG. 4): significantly more robust | Number of marbles buried compared to vehicle [3, 12]: significantly reduced | Number of marbles buried, combination with DSC 300 mg/kg vs agent 2.5 mg/kg alone ([3]; IP 30 min prior): floor level effects

CC(NC(C)(C)C)C(=O)c1cccc(Cl)c1 (centres unmarked) [bupropion]
FST additional beneficial effects in combination with DCS [2]: addition beneficial effects | FST effect of combined antidepressant and DCS vs either agent alone / DCS alone [2]: significantly larger than with either agent alone; also recorded: effects greater than DCS alone

CNCC[C@H](Oc1cccc2ccccc12)c1cccs1 [duloxetine]
FST additional beneficial effects in combination with DCS [2]: addition beneficial effects | FST effect of combined antidepressant and DCS vs either agent alone / DCS alone [2]: significantly larger than with either agent alone; also recorded: effects greater than DCS alone

CNCCC(Oc1ccc(C(F)(F)F)cc1)c1ccccc1 (centres unmarked) [fluoxetine]
FST additional beneficial effects in combination with DCS [2]: addition beneficial effects

CN[C@H]1CC[C@@H](c2ccc(Cl)c(Cl)c2)c2ccccc21 [sertraline]
FST additional beneficial effects in combination with DCS [2]: addition beneficial effects | FST effect of combined antidepressant and DCS vs either agent alone / DCS alone [2]: significantly larger than with either agent alone; also recorded: effects greater than DCS alone

COc1ccc(C(CN(C)C)C2(O)CCCCC2)cc1 (centres unmarked) [venlafaxine]
FST additional beneficial effects in combination with DCS [2]: addition beneficial effects

Cc1ccc(Sc2ccccc2N2CCNCC2)c(C)c1 [vortioxetine]
FST additional beneficial effects in combination with DCS [2]: addition beneficial effects
